In patent US11872230B2, “Method of treating a methionine-dependent cancer” (Agency for Science, Technology and Research, priority 2018, dated 2024):

Tests used:
[1] = test system: lung patient-derived xenograft (PDX) cells A139, A233; test: Patient-derived lung tumor xenografts (PDX) in NSG mice; assay type: in vivo; details: two PDX lines, FIDAS5 40 mg/kg for three days after implantation, six weeks
From the text: 5×10^5 single cells were mixed in a 1:1 mixture of serum free DMEM/F12 and Matrigel (BD) and injected subcutaneously into the flanks of 4-6 week old male and female NOD.Cg-Prkdc^scid Il2rg^tm1wjl SzJ (Jackson Laboratories). About 6 weeks later, or when tumor sizes exceed 2 cm in length, mice were sacrificed and tumors harvested for analysis. All animal experiments were approved by the Agency for Science Technology and Research Singapore—Biological Resource Centre. Mice were randomized by sex.
Since FIDAS5 appeared to more specifically disrupt the methionine cycle and inhibit cellular methylation activities compared to D9, it was sought to test whether its systemic delivery could impact the tumorigenic potential of TS cells. These highly tumorigenic cells were first subcutaneously implanted into NSG mice and FIDAS5 (40 mg/kg) or corn oil carrier was immediately administered via intraperitoneal injection for three consecutive days. After 6 weeks, mice transiently treated with FIDAS5 produced tumors that were much smaller than carrier-treated controls. […] To exclude the possibility of general cytotoxicity associated with the inhibitor on TS cells, TS cell-implanted NSG mice were treated with cisplatin (4 mg/kg), a frontline chemotherapeutic agent that broadly target bulk cancer cells in NSCLC tumors, in the same manner (FIG. 5i). […]

TS cells = test: Apoptosis assay (Annexin V/PI) of inhibitor treated TS cells; assay type: cell-based, human; details: transient exposure
From the text: 10^6 cells were stained with FITC Annexin V and PI, and analysed for apoptosis by flow cytometry using an LSRII Cell Analyzer (BD) according to manufacturer's instructions.

[2] = test system: methionine cycle metabolites in TS cells; test: LC/MS abundance of methionine cycle metabolites 48 h after inhibitor treatment; assay type: cell-based, human; details: 48 h FIDAS5 (10 μM), normalized to DMSO
Description: Cis-platinum (cis-Diammineplatinum(II) dichloride) and MG132 (10 μM final concentration) was purchased from Sigma, FIDAS-5 (final concentration of 10 μM in culture medium) from Merck Millipore and D9 (final concentration of 500 nM in culture medium).
For suspension cell culture, 10 million cells per sample were obtained and quenched with 4 volumes of ice-cold 150 mM sodium chloride solution. The cell pellets were collected by centrifugation of the quenched samples at 3000 g for 5 min at 4° C. and the supernatant was aspirated and discarded. For adherent cell culture, the media was gently aspirated and the cells on the surfaces of the well plates were gently washed with ice-cold 150 mM sodium chloride solution thrice. Ice-cold sodium chloride was added to the plate and a cell scraper was used to release adherent cells from the plate surface. The cell pellets were collected as described earlier and kept on ice. […]
For targeted LC/MS analysis, the chromatographic peak integration was performed using Targetlynx software (Waters Corp). In addition, for the ^13C-labeled methionine pulse-chase experiments, the atomic percent excess (APE) for each species was calculated and natural abundance corrected from an isotopomer matrix accounting for the presence of natural abundance carbons distributed throughout each possible parent/daughter ion combination (Table 3). […]

With `CNc1ccc(/C=C/c2c(F)cccc2Cl)cc1` [FIDAS5] the “xenograft tumors smaller relative to sham-treated mice” value [1] was “at least 6 fold”, the apoptosis (TS cells) was “did not negatively impact their long-term proliferation ability or trigger apoptosis” and the “reduction of intracellular levels of SAH” value [2] was ~10 fold. The “reduction of intracellular levels of SAM” value [2] was ~10 fold.
